Data reported in patent US20240199639A1, “PRETOMANID AMORPHOUS FORM” (THE GLOBAL ALLIANCE FOR TB DRUG DEVELOPMENT, INC., priority 2021, published 2024).
Converted amounts (≈) assume the structure as drawn. Read-outs that look alike come from different tables or passages of the source.

Key:
[1] = Supersaturated solubility measurement in FaSSIF with 2% DMSO; format: physicochemical; conditions: for solubility kinetic at 16 min: read-out: Measured conc.(μg/mL)
Experimental: Then 20 μL of each DMSO stock solution was added to FaSSIF at 1:49 to make the final DMSO concentration at 2% v/v. The samples were stirred at room temperature for 16 min, centrifuged and supernatants analyzed by HPLC.

[2] = format: physicochemical
Experimental: 10 mL of SGF was added into 8 vials containing each ASD prepared by vacuum drying as described above, then the suspensions were shaken using a thermomixer at 37° C. under 100 rpm, 300 μL of suspensions were withdrawn at 1 h and the pH values were recorded. After that, 10 mL of FaSSIF was added into the suspensions containing SGF, 300 μL of suspensions were withdrawn at 1 h and 3 h, the pH values in 3 h were also recorded. The samples of suspensions were centrifuged in 96-well plates at 3000 rpm for 2 min. The supernatants were diluted with the diluent (ACN/water, 50/50) and analyzed by HPLC. […]

[3] = Kinetic solubility of HME ASDs in FaSSIF at 37° C.; format: physicochemical; conditions: thermodynamic from solid; for solubility at 15 min: read-out: Solubility (μg/mL) 15 min; for solubility at 30 min: read-out: Solubility (μg/mL) 30 min; for solubility at 60 min: read-out: Solubility (μg/mL) 60 min; for solubility at 90 min: read-out: Solubility (μg/mL) 90 min; for solubility at 120 min: read-out: Solubility (μg/mL) 120 min; for solubility at 180 min: read-out: Solubility (μg/mL) 180 min
Experimental: 10 mL of FaSSIF was added into 4 vials containing each ASD (equivalent to 5mg API) prepared by Hot melt extrusion, respectively, then the suspensions were shaken using a thermomixer at 37° C. under 100 rpm, 300 μL of suspensions were withdrawn at 15, 30, 45, 60, 90, 120 and 180 mins. The samples of suspensions were centrifuged at 14000 rpm for 10 min. The supernatants were diluted with the diluent (ACN/water, 50/50) and analyzed by UPLC.
The milled ASD products were sieved with 60 mesh sieve, and kinetic solubility test was performed with sieved ASD products as well (Table 14).

[4] = Kinetic solubility of Soluplus ASDs with different drug loadings in FaSSIF at 37° C.; format: physicochemical; conditions: thermodynamic from solid, Table 8, FaSSIF
Experimental: 10 mL of FaSSIF was added into 3 vials containing each ASD (equivalent to 5 mg API) prepared by nanospray drying, respectively, then the suspensions were shaken using a thermomixer at 37° C. under 100 rpm, 300 μL of suspensions were withdrawn at 15, 30, 45, 60, 90, 120 and 180 mins. The samples of suspensions were centrifuged at 3000 rpm for 5 min. The supernatants were diluted with the diluent (ACN/water, 75/25) and analyzed by HPLC.

[5] = Induction time of crystallization of PA-824 in presence of HPMCAS; format: physicochemical
[6] = Kinetic solubility of nanospray-dried ASDs in FaSSIF at 37° C.; format: physicochemical; conditions: thermodynamic from solid
Experimental: 10 mL of FASSIF was added into 8 vials containing each ASD prepared before by nanospray drying, respectively, then the suspensions were shaken using a thermomixer at 37° C. under 100 rpm, 300 μL of suspensions were withdrawn at 15, 30, 45, 60, 90, 120 and 180 mins. The samples of suspensions were centrifuged in 96-well plates at 3000 rpm for 5 min. The supernatants were diluted with the diluent (ACN/water, 50/50) and analyzed by HPLC.

[7] = Equilibrium solubility of PA-824 in FaSSIF containing 2% DMSO; format: physicochemical; conditions: thermodynamic from solid, 25° C.
[8] = tested on: cytochrome P450; conditions: cited from earlier work
[9] = Amorphous solubility of PA-824; format: physicochemical
[10] = tested on: Gram-positive and Gram-negative bacteria; conditions: cited from earlier work
[11] = Kinetic solubility of nano suspension after lyophilization in FaSSIF at 37° C.; format: physicochemical; conditions: thermodynamic from solid, Table 20, FaSSIF
Experimental: 10 mL of FaSSIF was added into 2 vials containing 2 batches of nano suspension after Lyophilization (equivalent to 2 mg API), then the suspensions were shaken using a thermomixer at 37° C. and 100 rpm, 300 μL of suspensions were withdrawn at 15, 30, 45, 60, 90, 120 and 180 mins. The samples of suspensions were centrifuged at 14000 rpm for 10 min. The supernatants were diluted with the diluent (ACN/water, 50/50) and analyzed by UPLC.

[12] = 15 min, read-out: Solubility (μg/mL) 15 min
[13] = 30 min, read-out: Solubility (μg/mL) 30 min
[14] = 45 min, read-out: Solubility (μg/mL) 45 min
[15] = 60 min, read-out: Solubility (μg/mL) 60 min
[16] = 90 min, read-out: Solubility (μg/mL) 90 min
[17] = 180 min, read-out: Solubility (μg/mL) 180 min

O=[N+]([O-])c1cn2c(n1)OC[C@@H](OCc1ccc(OC(F)(F)F)cc1)C2 [PA-824, (6S)-2-nitro-6-{[4-(trifluoromethoxy)benzyl]oxy}-6,7-dihydro-5H-imidazo[2,1-b][1,3]oxazine]
solubility at 16 min ([1]; fassif, kinetic from dmso stock): 53.3 µg/mL (≈ 148 µM) | solubility kinetic at 16 min ([1]; fassif, kinetic from dmso stock, target conc. 205.60 μg/mL): 30.8 µg/mL (≈ 85.8 µM) | solubility kinetic at 16 min ([1]; fassif, kinetic from dmso stock, target conc. 514.00 μg/mL): 29.5 µg/mL (≈ 82.1 µM) | solubility kinetic at 16 min ([1]; fassif, kinetic from dmso stock, target conc. 616.80 μg/mL): 28.7 µg/mL (≈ 79.9 µM) | solubility kinetic at 16 min ([1]; fassif, kinetic from dmso stock, target conc. 771.00 μg/mL): 30.3 µg/mL (≈ 84.4 µM) | Measured conc.(μg/mL) ([1]; target conc. 51.40 μg/mL): 53.08 µg/mL | Measured conc.(μg/mL) ([1]; target conc. 102.80 μg/mL): 53.27 µg/mL | Measured conc.(μg/mL) ([1]; target conc. 411.20 μg/mL): 32.98 µg/mL | Measured conc.(μg/mL) ([1]; target conc. 1028.00 μg/mL): 30.32 µg/mL | FaSSIF Conc. (μg/mL) (1 hr) ([2]; 1 h): 23.95 µg/mL | SGF Conc. (μg/mL) (1 hr) ([2]; 1 h): 12.46 µg/mL | FaSSIF Conc. (μg/mL) (3 hr) ([2]; 3 h): 24.89 µg/mL | solubility at 15 min ([3]; after sieving (60 mesh)): 31.7 µg/mL (≈ 88.3 µM) | solubility at 30 min ([3]; after sieving (60 mesh)): 31.2 µg/mL (≈ 86.9 µM) | solubility at 45 min ([3]; after sieving (60 mesh), 45 min, read-out: Solubility (μg/mL) 45 min): 32.8 µg/mL (≈ 91.2 µM) | solubility at 60 min ([3]; after sieving (60 mesh)): 33.5 µg/mL (≈ 93.3 µM) | solubility at 90 min ([3]; after sieving (60 mesh)): 32.6 µg/mL (≈ 90.9 µM) | solubility at 120 min ([3]; after sieving (60 mesh)): 39.6 µg/mL (≈ 110 µM) | solubility at 180 min ([3]; after sieving (60 mesh)): 31.6 µg/mL (≈ 87.8 µM) | solubility at 15 min ([3]; without sieving): 37.2 µg/mL (≈ 103 µM) | solubility at 30 min ([3]; without sieving): 41.3 µg/mL (≈ 115 µM) | solubility at 60 min ([3]; without sieving): 46.2 µg/mL (≈ 129 µM) | solubility at 90 min ([3]; without sieving): 41.3 µg/mL (≈ 115 µM) | solubility at 120 min ([3]; without sieving): 41.4 µg/mL (≈ 115 µM) | solubility at 180 min ([3]; without sieving): 40.7 µg/mL (≈ 113 µM) | solubility at 15 min [4, 12]: 22.1 µg/mL (≈ 61.7 µM) | solubility at 30 min [4, 13]: 23.7 µg/mL (≈ 65.9 µM) | solubility at 45 min [4, 14]: 26.1 µg/mL (≈ 72.5 µM) | solubility at 60 min [4, 15]: 26.3 µg/mL (≈ 73.3 µM) | solubility at 90 min [4, 16]: 23.6 µg/mL (≈ 65.8 µM) | solubility at 180 min [4, 17]: 24.4 µg/mL (≈ 68 µM) | Induction Time ([5]; 160 ug/mL PA-824, FaSSIF V1): 0.89 ± 0.26 min | Induction Time ([5]; 160 ug/mL PA-824, FaSSIF V1 + HF (1 mg/mL)): 77.6 ± 13.6 min | Induction Time ([5]; 160 ug/mL PA-824, PBS pH 6.5): 1.39 ± 0.18 min | Induction Time ([5]; 160 ug/mL PA-824, PBS pH 6.5 + HF (1 mg/mL)): 43.75 ± 1.34 min | Induction Time ([5]; PA-824 80 μg/mL, PBS pH 6.5, HPMCAS-HF 10 μg/mL): about 77.5 minutes | solubility at 15 min [6, 12]: 22.1 µg/mL (≈ 61.7 µM) | solubility at 30 min [6, 13]: 23.7 µg/mL (≈ 65.9 µM) | solubility at 45 min [6, 14]: 26.1 µg/mL (≈ 72.5 µM) | solubility at 60 min [6, 15]: 26.3 µg/mL (≈ 73.3 µM) | solubility at 90 min [6, 16]: 23.6 µg/mL (≈ 65.8 µM) | solubility at 180 min [6, 17]: 24.4 µg/mL (≈ 68 µM) | solubility thermodynamic at 18 h [7]: 51.4 µg/mL (≈ 143 µM) | cytochrome P450 interactions [8]: no significant cytochrome P450 interactions | solubility ([9]; aqueous buffer, in PBS): ~160 µg/mL (≈ 445 µM) | solubility ([9]; in FaSSIF V1): ~300 µg/mL (≈ 835 µM) | activity against a broad range of Gram-positive and Gram-negative bacteria [10]: no significant activity | solubility at 15 min [11, 12]: 31.7 µg/mL (≈ 88.3 µM) | solubility at 30 min [11, 13]: 31.2 µg/mL (≈ 86.9 µM) | solubility at 45 min [11, 14]: 32.8 µg/mL (≈ 91.2 µM) | solubility at 60 min [11, 15]: 33.5 µg/mL (≈ 93.3 µM) | solubility at 90 min [11, 16]: 32.6 µg/mL (≈ 90.9 µM) | solubility at 120 min ([11]; 120 min, read-out: Solubility (μg/mL) 120 min): 39.6 µg/mL (≈ 110 µM) | solubility at 180 min [11, 17]: 31.6 µg/mL (≈ 87.8 µM)
